# In patent publication US5628328A, “Method for measuring muscle mass” (priority 1995, dated 1997):
# Tests used:
# [1] = sheep, cited from earlier work
# [2] = Nishizawa et al.; cited from earlier work
# [3] = design: species or system dogs; conditions: dog, in vivo
# Text: Urinary 3-methylhistidine may be used in cattle and humans as an index of muscle protein breakdown but is invalid for use in pigs and lambs. […] Previously, in validating urinary 3-methylhistidineas an index of muscle proteolysis, researchers have injected ^14 C-3-methylhistidine intravenously and recovered the tracer in urine but have never described its decay in plasma. In constructing the 3-compartment model, we kept in mind known physiology of 3-methylhistidine. It has been established that there are pools of 3-methylhistidine in plasma, in other extracellular fluid pools, within muscle and in other tissues. The primary fate of 3-methylhistidine in humans, cattle and dogs is into urine (model exit from compartment 1), but in sheep and pigs there is a balenine pool in muscle that accumulates over time (model exit from compartment 3). The kinetic data were initially fitted to three exponential terms, indicating the possibility of a three compartment model. […] Model code 10 of SAAM was used and the models were based on a set of linear differential equations having constant coefficients. Based on comparison of fits, a 3-compartment model was the best model to describe the metabolism of 3-methylhistidine; however, 2- and 4-compartment models as well as other configurations were also evaluated. […]
# [4] = dogs, cited from earlier work
smiles,measurement,setting,value
Cn1cnc(C[C@H](N)C(=O)O)c1 [3-methylhistidine],3-methylhistidine excreted in urine,[1],approximately 15%
same,Urinary excretion,[1]; retained in muscle as balenine,not quantitatively excreted in urine
same,Contribution of skin and intestine to total body pool of 3-methylhistidine,[2],up to 10%
same,Model 3-methylhistidine production versus urinary production,[3],qualitatively similar
same,3MH Production,"[4]; n=5, from model",12 µmol/kg/day
same,"M1, compartment mass",[4]; n=5,3227 nmol/kg
same,"M2, compartment mass",[4]; n=5,7973 nmol/kg
same,"M3, compartment mass",[4]; n=5,9261 nmol/kg
same,R01 mass transfer rate,[4]; n=5,9 nmol/kg/min
same,R12 mass transfer rate,[4]; n=5,329 nmol/kg/min
same,R21 mass transfer rate,[4]; n=5,319 nmol/kg/min
same,R23 mass transfer rate,[4]; n=5,56 nmol/kg/min
same,R32 mass transfer rate,[4]; n=5,56 nmol/kg/min
same,"L0,1 fractional transfer rate",[4]; number 5,.02 min⁻¹
same,"L1,2 fractional transfer rate",[4]; number 5,.06 min⁻¹
same,"L2,1 fractional transfer rate",[4]; number 5,.11 min⁻¹
same,"L2,3 fractional transfer rate",[4]; number 5,.008 min⁻¹
same,"L3,2 fractional transfer rate",[4]; number 5,.006 min⁻¹
same,Urinary 3MH loss,[4]; number 5,100 % of total
